From PMC12056667 (Chemical Science, 2025) come the findings set out here.

Assay [1] has as its target Tet(X4) (Escherichia coli, UniProt A0A3T0V9Y5). Put plainly: FP competitive displacement of probe 6. The class given is binding. To be noted: 25 nM 6, 40 nM Tet(X4), 5 mM MgCl2, 1 μM FAD, 100 mM Tris pH 7.0, 0.01% Triton X-100. The procedure: A 2× solution containing 80 nM Tet(X4), 2 μM FAD and 10 mM MgCl2 in the assay buffer was dispensed into the first 22 columns of a 384-well black, non-binding microtiter plate (Greiner Bio-One), 12.5 μL per well, using a microplate reagent dispenser. A solution of 2 μM FAD and 10 mM MgCl2 in the assay buffer was dispensed into the remaining columns to serve as a no enzyme control. A 3-fold, 10-point dilution series of substrates and inhibitors was made in DMSO in a V-bottom 96-well plate (Greiner Bio-One) with a highest concentration of 5 mM or 0.5 mM. Into one column was added DMSO with no inhibitor or substrate, to serve as a positive control. Tigecycline was included as a reference on every plate to ensure reproducibility. 0.5 μL of each dilution was transferred in quadruplicate to the 384-well plate containing enzyme solution using a CyBi-Well liquid-handling robot (CyBio). A solution of 50 nM 6 in the assay buffer was then dispensed, with 12.5 μL per well. The plate was briefly centrifuged (1000 rpm), then incubated at ambient temperature for 30 min prior to measuring the FP. Data points were normalised between the positive and negative controls. Normalised % response was plotted as a function of log10([Inhibitor]), and the IC50^app was determined by fitting the data to the equation: Y = Bottom + (top-bottom)/(1 + 10^Log(IC50) − X) × HillSlope in GraphPad Prism 9.4.1, where Y = % response and X = log10([Inhibitor]). Wells with unusual fluorescence intensities were manually identified and removed from the analysis. […]

Assay [2] deals with Acinetobacter spp. NT3-1 – tet(X3). Put plainly: microbe, parasite or virus in culture. The class given is cell-based. The procedure:
(§1) MIC tests and checkerboard assays were performed in U-bottom, 96-well microtiter plates using a modified broth microdilution protocol following CLSI guidelines. Cation-adjusted Mueller-Hinton Broth (CAMHB) was prepared fresh on the day of testing.[74] In brief, assays were set up in a total volume of 100 μL per well and titrations comprised seven 2-fold dilutions of inhibitors and ten 2-fold dilutions of tigecycline in CAMHB. Bacterial colonies were selected from an overnight culture on MHA plates (supplemented with 0.2%w/vL-arabinose for E. coli TOP10 containing pBAD-TOPO-Tet(X4)) and were suspended in 0.9% saline solution to achieve a 0.5 McFarland standard. A 100 μL aliquot of this suspension was then diluted into 9.9 mL of CAMHB to yield approximately 1.5 × 10^6 cfu mL^−1. 50 μL of the suspension was then added to each well of a microtiter plates. Plates were incubated at 37 °C for 18 h. At least 2 replicates were conducted for each combination. E. coli TOP10 + pBAD-TOPO-Tet(X4) cells were grown in the absence and presence of 0.2%w/vL-arabinose. Analysis of the MIC and checkerboard results were carried out by visual inspection of growth, with and without resazurin dye, an oxidation–reduction indicator.[75] As a measure of synergy, fractional inhibitory concentration index (FICI) was calculated as FICA + FICB, where FICA and FICB are the MICcombination/MICalone for each agent, respectively.[76] Results were interpreted as follows: synergistic (<0.5), indifferent (1.0–4.0) or antagonistic (>4.0).[64] In cases where the MIC exceeded or was below the measured range, the borderline value was taken to calculate the FIC index.

The test system of assay [3] is Salmonella enterica T-2a – tet(X4). Nature of the assay: microbe, parasite or virus in culture. The class given is cell-based. The procedure:
as §1

In assay [4] the test system is Acinetobacter baumannii NT5-1 – tet(X5). Put plainly: microbe, parasite or virus in culture. The format is cell-based. The procedure:
as §1, with “In brief, assays were set up in a total volume of 100 μL per well and titrations comprised seven 2-fold dilutions of inhibitors and ten 2-fold dilutions of tigecycline in CAMHB.” left out

Assay [5] deals with Escherichia coli T-24a – tet(X4). Nature of the assay: microbe, parasite or virus in culture. The format is cell-based. As to the method:
as §1, with “In brief, assays were set up in a total volume of 100 μL per well and titrations comprised seven 2-fold dilutions of inhibitors and ten 2-fold dilutions of tigecycline in CAMHB.” left out

The subject of assay [6] is Proteus penneri NT6-2 – tet(X6). Put plainly: microbe, parasite or virus in culture. The format is cell-based. As to the method:
as §1, with “In brief, assays were set up in a total volume of 100 μL per well and titrations comprised seven 2-fold dilutions of inhibitors and ten 2-fold dilutions of tigecycline in CAMHB.” left out

The subject of assay [7] is E. coli TOP10 containing plasmid pBAD-TOPO-Tet(X4). Nature of the assay: Broth microdilution MIC and checkerboard assay. To be noted: alone; without L-arabinose induction. The class given is cell-based, Escherichia coli.
Source text: Tet(X4) was sub-cloned from the Tet(X4) pET28b-(+) expression vector via TOPO cloning. The insert was amplified using the taq polymerase with the forward primer 5′- […]-3′ and the reverse primer 5′- […]-3’. Following PCR purification (Thermo Fisher Scientific), the A-tailed PCR product was ligated into the pBAD-TOPO vector using a TOPO cloning kit (Invitrogen) according to the manufacturer's protocol. Following amplification in E. coli NEB5α cells (NEBiolabs), the fidelity of the insert was confirmed by Sanger sequencing (Eurofins). For microbiological experiments, E. coli TOP10 cells were used as the recipient strain. Cells were plated on Mueller-Hinton agar (MHA) plates containing ampicillin at 100 μg mL^−1. The introduction of pBAD-TOPO-Tet(X4) was confirmed by colony PCR. Strains were stored in a freezer at −80 °C in cryopreservation beads.
as §1, with “In brief, assays were set up in a total volume of 100 μL per well and titrations comprised seven 2-fold dilutions of inhibitors and ten 2-fold dilutions of tigecycline in CAMHB.” left out
A general note: Dilution methods test growth across graded concentrations, often in twofold steps.

Where [8] appears, read: IC50app, Tet(X4) (Polarization).
[9] abbreviates: inhibitor in combination with tigecycline, lowest FICI.
Setting [10] is: tigecycline in combination with the inhibitor, lowest FICI.

Structures are written as SMILES. Read-outs that look alike come from different tables or passages of the source.

In the case of `CCC1(c2cnc[nH]2)Cc2ccccc2C1` [Atipamezole], the IC50 in assay [1] (setting [8]) is > 100000 nM.
Same read-out and setting: the result for `Nc1nc2c(c(=O)[nH]1)N(C=O)C(CNc1ccc(C(=O)N[C@@H](CCC(=O)O)C(=O)O)cc1)CN2` (stereo partly shown) [Calcium folinate] reads > 100000 nM.
For `CN(C)[C@@H]1C(O)=C(C(N)=O)C(=O)[C@@]2(O)C(O)=C3C(=O)c4c(O)ccc(Cl)c4[C@@](C)(O)[C@H]3C[C@@H]12` [Chlortetracycline], in assay [1] (IC50app, FP assay), the IC50 was 39 ± 9.6 nM.
Take `C[C@@H](Oc1cc(-c2cnn(C3CCNCC3)c2)cnc1N)c1c(Cl)ccc(F)c1Cl` [Crizotinib]: the IC50 in assay [1] (setting [8]) was > 100000 nM.
In the case of `NCCS` [Cysteamine], the IC50 in assay [1] (read-out: IC50app, Tet(X4) (Polarization)) was > 100000 nM.
The compound `CN(C)[C@@H]1C(O)=C(C(N)=O)C(=O)[C@@]2(O)C(O)=C3C(=O)c4c(O)ccc(Cl)c4[C@@H](O)[C@H]3C[C@@H]12` [Demeclocycline] yielded an IC50 in assay [1] (IC50app, FP assay) of 29 ± 4.6 nM.
With `N=C(N)c1ccc(/N=N/Nc2ccc(C(=N)N)cc2)cc1` [Diminazene], the IC50 in assay [1] (setting [8]) is > 100000 nM.
For `CCN(CC)C(=S)SSC(=S)N(CC)CC` [Disulfiram], in assay [1] (setting [8]), the IC50 is > 100000 nM.
Same read-out and setting: under `NCCc1ccc(O)c(O)c1` [Dopamine] stands > 100000 nM.
Take `C[C@]12CCC(=O)C=C1[C@@H]1C[C@@H]1[C@H]1[C@@H]3[C@@H]4C[C@@H]4[C@@]4(CCC(=O)O4)[C@@]3(C)CC[C@@H]12` [Drosperinone]: the “Tet(X) inhibitor MIC” value in assay [2] (alone, Acinetobacter spp. NT3-1) is 128 µg/mL; in assay [4] (alone, A. baumannii NT5-1), > 128 µg/mL; in assay [5] (alone, E. coli T-24a), 256 µg/mL; in assay [6] (alone, P. penneri NT6-2), > 128 µg/mL. Also, the “Combination (Antibiotic/Inhibitor) MICs: inhibitor” value in assay [2] (setting [9]), in assay [4] (setting [9]) and in assay [6] (setting [9]) was 128 µg/mL in each case. Also, the “Combination (Antibiotic/Inhibitor) MICs: antibiotic” value is 4 µg/mL in assay [2] (setting [10]); 16 µg/mL in assay [3] (setting [10]); 4 µg/mL in assay [4] (setting [10]); 8 µg/mL in assay [5] (setting [10]); 8 µg/mL in assay [6] (setting [10]). In addition, the FICI in assay [2] (with tigecycline) stood at 2; in assay [3] (with tigecycline) it was 1.5; in assay [4] (with tigecycline) it was 1.5; in assay [5] (with tigecycline), 1; in assay [6] (with tigecycline) it was 2. The Outcome result in assay [2] (with tigecycline), in assay [3] (with tigecycline), in assay [4] (with tigecycline), in assay [5] (with tigecycline) and in assay [6] (with tigecycline) was “indifferent (indifferent (0.5-4.0))” in each case.
The compound `CN(C)[C@@H]1C(O)=C(C(N)=O)C(=O)[C@@]2(O)C(O)=C3C(=O)c4c(O)c(NC(=O)CN5CCCC5)cc(F)c4C[C@H]3C[C@@H]12` [Eravacycline] gave an IC50 in assay [1] (IC50app, FP assay) of 13.7 ± 1.6 nM.
In the case of `COc1ccnc(C[S+]([O-])c2nc3cc(-n4cccc4)ccc3[nH]2)c1C` (stereo not shown) [Ilaprazole], the IC50 in assay [1] (setting [8]) was > 100000 nM.
The compound `C=C1c2cccc(O)c2C(=O)C2=C(O)[C@]3(O)C(=O)C(C(N)=O)=C(O)[C@@H](N(C)C)[C@@H]3[C@@H](O)[C@H]12` [Methacycline] gave an IC50 in assay [1] (IC50app, FP assay) of 311 ± 36 nM.
In assay [1] (IC50app, FP assay), `CN(C)c1ccc(O)c2c1C[C@H]1C[C@H]3[C@H](N(C)C)C(O)=C(C(N)=O)C(=O)[C@@]3(O)C(O)=C1C2=O` [Minocycline] yielded an IC50 of 51.5 ± 3.6 nM.
On to `NC(=O)c1ncn([C@@H]2O[C@H](CO)[C@@H](O)[C@H]2O)c1O` [Mizoribine], for which, in assay [1] (setting [8]), the IC50 was > 100000 nM.
For the compound `CN(C)c1cc(CNCC(C)(C)C)c(O)c2c1C[C@H]1C[C@H]3[C@H](N(C)C)C(O)=C(C(N)=O)C(=O)[C@@]3(O)C(O)=C1C2=O` [Omadacycline], the IC50 in assay [1] (IC50app, FP assay) worked out at 24.3 ± 4 nM.
`CN(C)[C@@H]1C(O)=C(C(N)=O)C(=O)[C@@]2(O)C(O)=C3C(=O)c4c(O)cccc4[C@@](C)(O)[C@H]3[C@H](O)[C@@H]12` [Oxytetracycline] displayed an IC50 in assay [1] (IC50app, FP assay) of 4430 ± 260 nM.
For `Nc1ccc2cc3ccc(N)cc3nc2c1` [Proflavine], in assay [1] (setting [8]), the IC50 was > 100000 nM.
As to `CN(C)[C@@H]1C(O)=C(C(N)=O)C(=O)[C@@]2(O)C(O)=C3C(=O)c4c(O)cccc4C[C@H]3C[C@@H]12` [Sancycline], the IC50 in assay [1] (IC50app, FP assay) turned out to be 47 ± 7.1 nM.
Consider `CON(C)Cc1ccc(O)c2c1C[C@H]1C[C@H]3[C@H](N(C)C)C(O)=C(C(N)=O)C(=O)[C@@]3(O)C(O)=C1C2=O` [Sarecycline], for which, in assay [1] (IC50app, FP assay), the IC50 was found to be 31.5 ± 10 nM.
`CN(C)[C@@H]1C(O)=C(C(N)=O)C(=O)[C@@]2(O)C(O)=C3C(=O)c4c(O)cccc4[C@@](C)(O)[C@H]3C[C@@H]12` [Tetracycline] displayed an IC50 in assay [1] (IC50app, FP assay) of 69.6 ± 8.8 nM. Moreover, the “Antibiotic MIC” value in assay [7] is 4 µg/mL.
